In brackets after ≈: the same amount, converted by molar mass. Where two headings read alike, the source gives them in different places.
Assays:
P. distasonis ATCC 8503 = test: MIC by broth microdilution; type: cell-based; conditions: Parabacteroides distasonis, ATCC8503
[1] = test system: C. difficile strain 4118 (CD4118, ATCC BAA-1870, ribotype 027); test: MIC by broth microdilution; type: cell-based, Clostridium difficile; conditions: for MIC: Clostridioides difficile
[2] = test system: C. difficile isolate 20110961 (ribotype A12); test: MIC by broth microdilution; type: cell-based, Clostridium difficile; conditions: Clostridioides difficile
[3] = test system: C. difficile isolate 20110960 (ribotype 017); test: MIC by broth microdilution; type: cell-based, Clostridium difficile; conditions: Clostridioides difficile
[4] = test system: C. difficile isolate 20110973 (ribotype 106); test: MIC by broth microdilution; type: cell-based, Clostridium difficile; conditions: Clostridioides difficile
[5] = test system: C. difficile isolate 20100422 (ribotype 054); test: MIC by broth microdilution; type: cell-based, Clostridium difficile; conditions: Clostridioides difficile
[6] = test system: C. difficile isolate 20100584 (ribotype 014); test: MIC by broth microdilution; type: cell-based, Clostridium difficile; conditions: Clostridioides difficile
[7] = test system: C. difficile isolate 20111163 (ribotype 024); test: MIC by broth microdilution; type: cell-based, Clostridium difficile; conditions: Clostridioides difficile
[8] = test system: C. difficile isolate 20110742 (ribotype 002); test: MIC by broth microdilution; type: cell-based, Clostridium difficile; conditions: Clostridioides difficile
L. plantarum ATCC 8014 = test: MIC by broth microdilution; type: cell-based; conditions: Lactiplantibacillus plantarum
[9] = test system: C. difficile isolate 20110566 (ribotype 020); test: MIC by broth microdilution; type: cell-based, Clostridium difficile; conditions: Clostridioides difficile
[10] = test system: C. difficile isolate 20110869 (ribotype 001_072); test: MIC by broth microdilution; type: cell-based, Clostridium difficile; conditions: Clostridioides difficile
[11] = test system: L. reuteri Strain CF48-3A; test: MIC by broth microdilution; type: cell-based, Lactobacillus reuteri; conditions: Limosilactobacillus reuteri
Hemolysis assay = type: cell-based; conditions: sheep, pH 7.4, 32 µg/mL, 1 h, 37 °C, 1% Triton X-100 positive control, triplicate, read-out: Hemolysis (%)
Method: Sheep red blood cells (Innovative Research, Novi, MI, USA) were washed three times with PBS pH 7.4. A 3% cell suspension in PBS (100 μL) was added to test compounds in PBS (100 μL, to a final concentration of 32 μg/mL), and then incubated at 37 °C for 1 h. The plate was centrifuged at 500 × g for 10 min, and supernatants (100 μL) were transferred to a clean 96-well plate. Hemolysis was determined by measuring absorbance at 540 nm, with 1% Triton X-100 as the positive control and 0.5% DMSO in PBS as the negative control. Hemolysis assays were performed in triplicate.

[12] = test system: C. difficile isolate 20110986 (ribotype 078); test: MIC by broth microdilution; type: cell-based, Clostridium difficile; conditions: Clostridioides difficile
[13] = test system: C. clostridioforme ATCC 25537; test: MIC by broth microdilution; type: cell-based, Clostridium clostridioforme; conditions: Clostridium, ATCC25537
[14] = test system: B. fragilis Strain CL05T00C42; test: MIC by broth microdilution; type: cell-based; conditions: Bacteroides fragilis
[15] = test system: B. longum subsp. longum Strain 44B; test: MIC by broth microdilution; type: cell-based; conditions: Bifidobacterium longum
16 C. difficile isolates = test: MIC by broth microdilution, summary over 16 C. difficile isolates; type: cell-based, Clostridium difficile; conditions: for MIC50 / MIC90: Clostridioides difficile; for MIC Range: range over 16 C. difficile isolates
[16] = test system: L. johnsonii Strain 135-1-CHN; test: MIC by broth microdilution; type: cell-based; conditions: Lactobacillus johnsonii, STRAIN1351CHN
B. subtilis ATCC 6051 = test: MIC by broth microdilution; type: cell-based; conditions: Bacillus subtilis, ATCC6051
A. baumannii M2 = test: MIC by broth microdilution; type: cell-based; conditions: Acinetobacter baumannii
[17] = test system: C. difficile isolate 20120016 (ribotype 019); test: MIC by broth microdilution; type: cell-based, Clostridium difficile; conditions: Clostridioides difficile
C. difficile strain 4118 = test: Minimum bactericidal concentration (MBC), logarithmic- and stationary-phase cells; type: cell-based, Clostridium difficile
Method: The procedure for MBC determination was adapted from that of Alam et al.[44]. Briefly, a single overnight colony of C. difficile strain 4118 (streaked onto blood agar plate) was suspended in BHIS and grown to OD600 ~ 0.4–0.5 (logarithmic phase) or for 24 h (stationary phase). In 96-well microtiter plates, cultures were added to two-fold serial dilutions of test compounds in BHIS and incubated for 20–24 h at 37 °C in an anaerobic chamber. […] MBC measurements were performed in duplicate.

S. aureus RN4220 = test: MIC by broth microdilution; type: cell-based; conditions: Staphylococcus aureus, CAMHB, aerobic, duplicate
P. nigrescens ATCC 33563 = test: MIC by broth microdilution; type: cell-based; conditions: Prevotella nigrescens, ATCC33563
[18] = test system: C. difficile isolate 20110740 (ribotype 018); test: MIC by broth microdilution; type: cell-based, Clostridium difficile; conditions: Clostridioides difficile
P. aeruginosa PAO1 = test: MIC by broth microdilution; type: cell-based; conditions: Pseudomonas aeruginosa
S. epidermidis 1457 = test: MIC by broth microdilution; type: cell-based; conditions: Staphylococcus epidermidis
[19] = test system: B. breve Strain EX336960VC19; test: MIC by broth microdilution; type: cell-based; conditions: Bifidobacterium breve
[20] = test system: B. thetaiotaomicron ATCC 29148; test: microbe, parasite or virus in culture; type: cell-based; conditions: Bacteroides thetaiotaomicron, ATCC29148
[21] = test system: C. difficile isolate 20121412 (ribotype 047); test: MIC by broth microdilution; type: cell-based, Clostridium difficile; conditions: Clostridioides difficile
[22] = test system: C. difficile isolate 20121190 (ribotype 126); test: MIC by broth microdilution; type: cell-based, Clostridium difficile; conditions: Clostridioides difficile

SMILES: Cc1ncc([N+](=O)[O-])n1CCO [Metronidazole, metronidazole]
- MIC (P. distasonis ATCC 8503; P. distasonis ATCC 8503, supplemented Brucella broth, anaerobic, duplicate, read-out: MIC): 2 µg/mL (≈ 11.7 µM)
- MIC ([1]; ATCCBAA1870, BHIS broth, anaerobic, 20–24 h, n = 2, read-out: MIC C. difficile 4118): 0.25 µg/mL (≈ 1.46 µM)
- MIC ([2]; isolate 20110961, ribotype A12, duplicate, read-out: MIC): 0.25 µg/mL (≈ 1.46 µM)
- MIC ([3]; isolate 20110960, ribotype 017, duplicate, read-out: MIC): 0.25 µg/mL (≈ 1.46 µM)
- MIC ([4]; isolate 20110973, ribotype 106, duplicate, read-out: MIC): 0.25 µg/mL (≈ 1.46 µM)
- MIC ([5]; isolate 20100422, ribotype 054, duplicate, read-out: MIC): 0.25 µg/mL (≈ 1.46 µM)
- MIC ([6]; isolate 20100584, ribotype 014, duplicate, read-out: MIC): 0.25 µg/mL (≈ 1.46 µM)
- MIC ([7]; isolate 20111163, ribotype 024, duplicate, read-out: MIC): 0.13 µg/mL (≈ 0.76 µM)
- MIC ([8]; isolate 20110742, ribotype 002, duplicate, read-out: MIC): 0.13 µg/mL (≈ 0.76 µM)
- MIC (L. plantarum ATCC 8014; ATCC8014, L. plantarum ATCC 8014, CAMHB with 5% laked horse blood, ~48 h, duplicate, read-out: MIC): > 32 µg/mL
- MIC ([9]; isolate 20110566, ribotype 020, duplicate, read-out: MIC): 0.25 µg/mL (≈ 1.46 µM)
- MIC ([10]; isolate 20110869, ribotype 001_072, duplicate, read-out: MIC): 0.25 µg/mL (≈ 1.46 µM)
- MIC ([11]; L. reuteri CF48-3A, CAMHB with 5% laked horse blood, ~48 h, duplicate, read-out: MIC): > 32 µg/mL
- hemolysis at 1 h, 32 µg/mL (Hemolysis assay; sheep red blood cells (3% suspension)): < 1%
- MIC ([12]; isolate 20110986, ribotype 078, duplicate, read-out: MIC): 0.13 to 0.25 µg/mL (≈ 0.76 to 1.46 µM)
- MIC ([13]; C. clostridioforme ATCC 25537, BHIS, anaerobic, duplicate, read-out: MIC): 0.06 µg/mL (≈ 0.351 µM)
- MIC ([14]; B. fragilis CL05T00C42, supplemented Brucella broth, anaerobic, duplicate, read-out: MIC): 0.5 µg/mL (≈ 2.92 µM)
- MIC ([15]; B. longum subsp. longum 44B, LSM broth, anaerobic, duplicate, read-out: MIC): 4 to 8 µg/mL (≈ 23.4 to 46.7 µM)
- MIC50 (16 C. difficile isolates; MIC at which 50% of the 16 isolates are inhibited, n = 2, read-out: MIC50): 0.25 µg/mL (≈ 1.46 µM)
- MIC90 (16 C. difficile isolates; MIC at which 90% of the 16 isolates are inhibited, n = 2, read-out: MIC90): 0.25 µg/mL (≈ 1.46 µM)
- MIC Range (16 C. difficile isolates; n = 2): 0.13 to 0.25 µg/mL
- MIC ([16]; L. johnsonii 135-1-CHN, CAMHB with 5% laked horse blood, ~48 h, duplicate, read-out: MIC): > 32 µg/mL
- MIC (B. subtilis ATCC 6051; B. subtilis ATCC 6051, CAMHB, aerobic, duplicate, read-out: MIC): > 32 µg/mL
- MIC (A. baumannii M2; A. baumannii M2, CAMHB, aerobic, duplicate, read-out: MIC): > 32 µg/mL
- MIC ([17]; isolate 20120016, ribotype 019, duplicate, read-out: MIC): 0.25 µg/mL (≈ 1.46 µM)
- MBC (C. difficile strain 4118; Clostridioides difficile, 4118, minimum bactericidal concentration (≥3-log reduction) for logarithmic-phase cells, 20–24 h, n = 2, read-out: MBClog): > 32 µg/mL
- MBC (C. difficile strain 4118; Clostridioides difficile, 4118, minimum bactericidal concentration (≥3-log reduction) for stationary-phase cells, 20–24 h, n = 2, read-out: MBCstat): > 32 µg/mL
- log reduction of CD4118 stationary-phase cells (C. difficile strain 4118; at 32 μg/mL, 20–24 h): < 3 log
- MIC (S. aureus RN4220): > 32 µg/mL
- MIC (P. nigrescens ATCC 33563; P. nigrescens ATCC 33563, supplemented Brucella broth, anaerobic, duplicate, read-out: MIC): 2 µg/mL (≈ 11.7 µM)
- MIC ([18]; isolate 20110740, ribotype 018, duplicate, read-out: MIC): 0.25 µg/mL (≈ 1.46 µM)
- MIC (P. aeruginosa PAO1; P. aeruginosa PAO1, CAMHB, aerobic, duplicate, read-out: MIC): > 32 µg/mL
- MIC (S. epidermidis 1457; S. epidermidis 1457, CAMHB, aerobic, duplicate, read-out: MIC): > 32 µg/mL
- MIC ([19]; B. breve EX336960VC19, LSM broth, anaerobic, duplicate, read-out: MIC): > 32 µg/mL
- MIC [20]: 1 µg/mL (≈ 5.84 µM)
- MIC ([21]; isolate 20121412, ribotype 047, duplicate, read-out: MIC): 0.25 µg/mL (≈ 1.46 µM)
- MIC ([22]; isolate 20121190, ribotype 126, duplicate, read-out: MIC): 0.13 µg/mL (≈ 0.76 µM)

SMILES: O=C(Nc1ccc(Oc2ccc(Cl)cc2)c(Cl)c1)c1cc(I)cc(I)c1O [Rafoxanide, rafoxanide]
- MIC (P. distasonis ATCC 8503): 8 µg/mL (≈ 12.8 µM)
- MIC C. difficile 4118 ([1]; BHIS broth, anaerobic, 20–24 h, n = 2): 0.13 µg/mL (≈ 0.208 µM)
- MIC ([1]; ATCCBAA1870, read-out: MIC C. difficile 4118): 0.13 µg/mL (≈ 0.208 µM)
- MIC [2]: 0.06 µg/mL (≈ 0.0958 µM)
- MIC [3]: 0.06 µg/mL (≈ 0.0958 µM)
- MIC [4]: 0.06 µg/mL (≈ 0.0958 µM)
- MIC [5]: 0.13 µg/mL (≈ 0.208 µM)
- MIC [6]: 0.06 µg/mL (≈ 0.0958 µM)
- MIC [7]: 0.06 µg/mL (≈ 0.0958 µM)
- MIC [8]: 0.06 µg/mL (≈ 0.0958 µM)
- MIC (L. plantarum ATCC 8014; ATCC8014, 48 h): 32 µg/mL (≈ 51.1 µM)
- MIC [9]: 0.06 µg/mL (≈ 0.0958 µM)
- MIC [10]: 0.13 µg/mL (≈ 0.208 µM)
- MIC ([11]; 48 h): 16 µg/mL (≈ 25.6 µM)
- hemolysis at 1 h, 32 µg/mL (Hemolysis assay): < 1%
- MIC [12]: 0.06 to 0.13 µg/mL (≈ 0.0958 to 0.208 µM)
- MIC [13]: 1 µg/mL (≈ 1.6 µM)
- MIC [14]: 32 µg/mL (≈ 51.1 µM)
- MIC [15]: 8 µg/mL (≈ 12.8 µM)
- MIC50 (16 C. difficile isolates): 0.06 µg/mL (≈ 0.0958 µM)
- MIC90 (16 C. difficile isolates): 0.13 µg/mL (≈ 0.208 µM)
- MIC Range (16 C. difficile isolates; n = 2): 0.03 to 0.13 µg/mL
- MIC ([16]; 48 h): 32 µg/mL (≈ 51.1 µM)
- MIC (B. subtilis ATCC 6051): ≤ 0.03 µg/mL
- MIC (A. baumannii M2; M2): > 32 µg/mL
- MIC [17]: 0.13 µg/mL (≈ 0.208 µM)
- MBC (C. difficile strain 4118; Clostridioides difficile, 4118, read-out: MBClog): 0.5 µg/mL (≈ 0.799 µM)
- MBC (C. difficile strain 4118; Clostridioides difficile, 4118, read-out: MBCstat): 1 µg/mL (≈ 1.6 µM)
- MIC (S. aureus RN4220): 0.25 µg/mL (≈ 0.399 µM)
- MIC (P. nigrescens ATCC 33563): 8 µg/mL (≈ 12.8 µM)
- MIC [18]: 0.06 µg/mL (≈ 0.0958 µM)
- MIC (P. aeruginosa PAO1; PAO1): > 32 µg/mL
- MIC (S. epidermidis 1457; 1457): ≤ 0.03 µg/mL
- MIC [19]: 16 to 32 µg/mL (≈ 25.6 to 51.1 µM)
- MIC [20]: > 32 µg/mL
- MIC [21]: 0.03 µg/mL (≈ 0.0479 µM)
- MIC [22]: 0.13 µg/mL (≈ 0.208 µM)
